pIC50: −log10 of the molar value. Counter-ions that a name gives are not always drawn.
Tests used:
[1] = target: T1, human JAK3 kinase domain (JH1) (Homo sapiens, UniProt P52333); experiment: JH1 biochemical assay for JAK3 (ADP-Glo kinase assay, recombinant JH1 catalytic domain, JAK3-974 peptide, 4 μM ATP)
T1 construct: recombinantly generated catalytic kinase (also known as JH1) domain of human JAK1, JAK2, JAK3 and TYK2
Outline: (§1)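 Reactions ran 100 min with 50 μM substrate peptide (JAK3-342 for JAK1 at 4 nM enzyme; JAK3-974 for JAK2 0.2 nM, JAK3 0.3 nM, TYK2 2 nM), and ADP formed was read by ADP-Glo luminescence. Eleven-point 3-fold series from 10 or 1 μM; IC50 fitted by 4-parameter logistic model.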

[2] = target: T2, human JAK1 kinase domain (JH1) (Homo sapiens, UniProt P23458); experiment: JH1 biochemical assay for JAK1 (ADP-Glo kinase assay, recombinant JH1 catalytic domain, JAK3-342 peptide, 35 μM ATP)
T2 construct: recombinantly generated catalytic kinase (also known as JH1) domain of human JAK1, JAK2, JAK3 and TYK2
T2 sequence (P23458 875-1153 limits assumed): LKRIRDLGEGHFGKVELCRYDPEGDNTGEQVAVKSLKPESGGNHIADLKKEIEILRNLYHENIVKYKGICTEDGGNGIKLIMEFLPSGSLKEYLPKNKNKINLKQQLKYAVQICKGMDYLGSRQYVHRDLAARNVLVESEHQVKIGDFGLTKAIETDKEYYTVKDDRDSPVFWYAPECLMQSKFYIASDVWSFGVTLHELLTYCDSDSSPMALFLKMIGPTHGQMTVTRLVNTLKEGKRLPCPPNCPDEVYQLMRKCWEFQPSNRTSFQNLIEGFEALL
Outline: as §1

[3] = target: T3, human TYK2 kinase domain (JH1) (Homo sapiens, UniProt P29597); experiment: JH1 biochemical assay for TYK2 (ADP-Glo kinase assay, recombinant JH1 catalytic domain, JAK3-974 peptide, 10 μM ATP)
T3 construct: recombinantly generated catalytic kinase (also known as JH1) domain of human JAK1, JAK2, JAK3 and TYK2
T3 sequence (P29597 897-1176 limits assumed): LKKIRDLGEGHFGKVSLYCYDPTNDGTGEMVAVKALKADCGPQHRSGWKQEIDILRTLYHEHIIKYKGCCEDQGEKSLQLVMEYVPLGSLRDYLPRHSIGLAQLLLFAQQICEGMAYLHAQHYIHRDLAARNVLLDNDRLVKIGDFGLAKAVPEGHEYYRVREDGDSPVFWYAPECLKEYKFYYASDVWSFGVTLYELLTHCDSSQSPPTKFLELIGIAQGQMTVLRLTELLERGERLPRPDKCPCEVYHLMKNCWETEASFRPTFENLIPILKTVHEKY
Outline: as §1

[4] = target: JAK2 kinase activity on STAT5 in TF1 cells (Homo sapiens, UniProt O60674); experiment: pSTAT5 cell assay (MSD; TF1 cells, 30 ng/mL IL-3 stimulation); format: cell-based; settings: 30 ng/mL IL-3, 15 minutes
Sequence of JAK2 kinase activity on STAT5 in TF1 cells (O60674 whole entry): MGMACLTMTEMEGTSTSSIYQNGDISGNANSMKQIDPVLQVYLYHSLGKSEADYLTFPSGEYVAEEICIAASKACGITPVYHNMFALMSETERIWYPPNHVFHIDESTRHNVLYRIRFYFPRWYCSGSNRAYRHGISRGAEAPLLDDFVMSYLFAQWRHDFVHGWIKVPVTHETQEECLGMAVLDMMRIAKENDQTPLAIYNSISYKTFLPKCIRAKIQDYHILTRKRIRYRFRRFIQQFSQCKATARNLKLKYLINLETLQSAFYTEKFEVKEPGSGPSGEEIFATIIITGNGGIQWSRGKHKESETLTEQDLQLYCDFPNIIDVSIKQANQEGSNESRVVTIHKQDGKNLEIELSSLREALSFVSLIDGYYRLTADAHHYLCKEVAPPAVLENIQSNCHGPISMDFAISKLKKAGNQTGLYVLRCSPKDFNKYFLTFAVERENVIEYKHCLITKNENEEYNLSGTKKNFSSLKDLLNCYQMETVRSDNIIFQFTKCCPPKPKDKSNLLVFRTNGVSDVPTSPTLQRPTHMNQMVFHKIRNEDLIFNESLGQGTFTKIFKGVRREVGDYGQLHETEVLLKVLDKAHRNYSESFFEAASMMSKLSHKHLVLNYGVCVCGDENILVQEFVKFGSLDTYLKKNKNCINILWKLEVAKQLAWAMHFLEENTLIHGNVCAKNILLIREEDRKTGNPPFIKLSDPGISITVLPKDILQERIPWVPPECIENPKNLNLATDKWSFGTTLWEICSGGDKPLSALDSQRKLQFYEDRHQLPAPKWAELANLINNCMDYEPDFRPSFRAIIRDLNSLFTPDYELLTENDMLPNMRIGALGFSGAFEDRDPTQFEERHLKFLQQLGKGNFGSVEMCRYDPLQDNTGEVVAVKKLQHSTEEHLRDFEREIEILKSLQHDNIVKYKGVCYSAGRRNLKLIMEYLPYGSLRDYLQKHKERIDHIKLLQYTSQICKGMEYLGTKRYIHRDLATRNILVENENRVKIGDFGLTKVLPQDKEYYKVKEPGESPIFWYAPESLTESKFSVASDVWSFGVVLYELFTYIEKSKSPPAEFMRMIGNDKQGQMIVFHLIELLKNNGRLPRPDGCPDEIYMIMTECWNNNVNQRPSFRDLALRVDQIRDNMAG
Protocol: The inhibitory potency of compounds of the disclosure against the JAK2 kinase activity on STAT5 was evaluated using an MSD-platform plate-based assay format. TF1 cells natively expressing STAT5 and JAK2 were serum-starved to reduce background phosphorylation levels, then cells were treated with compounds of disclosure for 1 hour with a 10-point four-fold dilution series starting at 10 μM. Cells were then stimulated with 30 ng/mL IL-3 for 15 minutes. Cells were then lysed and pSTAT5 levels were quantitated using an MSD plate-based assay with anti-STAT5 antibodies. The data were normalized and the percent activity versus log concentration of compound was fitted with a 4-parameter logistic model to generate a curve and an IC50 value.

[5] = target: T4, human JAK2 kinase domain (JH1) (Homo sapiens, UniProt O60674); experiment: JH1 biochemical assay for JAK2 (ADP-Glo kinase assay, recombinant JH1 catalytic domain, JAK3-974 peptide, 15 μM ATP)
T4 construct: recombinantly generated catalytic kinase (also known as JH1) domain of human JAK1, JAK2, JAK3 and TYK2
T4 sequence (O60674 849-1124 limits assumed): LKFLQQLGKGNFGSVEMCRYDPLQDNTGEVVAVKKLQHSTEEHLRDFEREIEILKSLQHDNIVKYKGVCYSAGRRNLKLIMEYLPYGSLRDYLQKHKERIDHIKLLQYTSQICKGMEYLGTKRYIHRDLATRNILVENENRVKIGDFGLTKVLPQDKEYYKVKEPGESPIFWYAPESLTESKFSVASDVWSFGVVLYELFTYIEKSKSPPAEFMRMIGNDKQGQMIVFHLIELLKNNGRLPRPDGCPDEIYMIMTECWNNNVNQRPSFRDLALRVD
Outline: as §1

[6] = target: JAK1 kinase activity on STAT3 in TF1 cells (Homo sapiens, UniProt P23458); experiment: pSTAT3 cell assay (MSD; TF1 cells, 30 ng/mL IL-6 stimulation); format: cell-based; settings: 30 ng/mL IL-6, 15 minutes
Sequence of JAK1 kinase activity on STAT3 in TF1 cells (P23458 whole entry): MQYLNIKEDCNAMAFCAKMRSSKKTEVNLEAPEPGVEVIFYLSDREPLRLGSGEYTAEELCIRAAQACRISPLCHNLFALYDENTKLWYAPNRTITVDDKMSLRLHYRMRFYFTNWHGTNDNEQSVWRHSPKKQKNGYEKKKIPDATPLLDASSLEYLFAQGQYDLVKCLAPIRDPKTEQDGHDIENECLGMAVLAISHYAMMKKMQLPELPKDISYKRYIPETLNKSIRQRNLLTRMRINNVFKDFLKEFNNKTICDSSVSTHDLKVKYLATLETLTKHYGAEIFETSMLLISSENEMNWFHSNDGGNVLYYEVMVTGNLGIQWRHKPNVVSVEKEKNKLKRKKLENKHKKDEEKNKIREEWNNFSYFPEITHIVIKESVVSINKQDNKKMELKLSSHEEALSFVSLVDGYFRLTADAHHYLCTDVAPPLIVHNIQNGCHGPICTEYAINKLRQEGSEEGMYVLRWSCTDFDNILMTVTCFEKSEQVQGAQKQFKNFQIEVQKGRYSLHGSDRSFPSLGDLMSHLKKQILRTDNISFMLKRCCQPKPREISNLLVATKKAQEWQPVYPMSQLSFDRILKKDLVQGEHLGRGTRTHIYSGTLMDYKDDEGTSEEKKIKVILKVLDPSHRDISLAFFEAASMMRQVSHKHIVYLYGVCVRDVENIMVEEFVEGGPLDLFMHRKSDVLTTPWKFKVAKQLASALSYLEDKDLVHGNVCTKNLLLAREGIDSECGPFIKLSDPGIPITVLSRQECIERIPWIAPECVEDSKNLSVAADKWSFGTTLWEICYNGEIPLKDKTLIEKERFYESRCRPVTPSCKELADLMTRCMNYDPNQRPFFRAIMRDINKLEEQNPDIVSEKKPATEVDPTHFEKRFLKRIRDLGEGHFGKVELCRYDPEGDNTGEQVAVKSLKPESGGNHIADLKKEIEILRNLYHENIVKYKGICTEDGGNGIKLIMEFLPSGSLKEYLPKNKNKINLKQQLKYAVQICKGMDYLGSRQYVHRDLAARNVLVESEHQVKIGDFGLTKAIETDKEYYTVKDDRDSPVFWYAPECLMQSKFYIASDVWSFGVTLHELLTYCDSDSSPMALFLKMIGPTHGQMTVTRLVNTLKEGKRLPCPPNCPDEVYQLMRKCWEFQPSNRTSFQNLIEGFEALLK
Protocol: The inhibitory potency of compounds of the disclosure against the JAK1 kinase activity on STAT3 was evaluated using an MSD-platform plate-based assay format. TF1 cells natively expressing STAT3 and JAK1 were serum-starved to reduce background phosphorylation levels, then cells were treated with compounds of the disclosure for 1 hour with a 10-point four-fold dilution series starting at 10 μM. Cells were then stimulated with 30 ng/mL interleukin 6 (IL-6) for 15 minutes. Cells were lysed and pSTAT3 levels were quantitated using an MSD plate-based assay with anti-STAT3 antibodies. The data were normalized and the percent activity versus log concentration of compound was fitted with a 4-parameter logistic model to generate IC50 curves.

[7] = target: Tyk2 kinase activity on STAT4 in NK92 cells (Homo sapiens, UniProt P29597); experiment: pSTAT4 cell assay (MSD; NK92 cells, 30 ng/mL IL2 stimulation); format: cell-based; settings: 30 ng/mL IL2, 15 minutes
Sequence of Tyk2 kinase activity on STAT4 in NK92 cells (P29597 whole entry): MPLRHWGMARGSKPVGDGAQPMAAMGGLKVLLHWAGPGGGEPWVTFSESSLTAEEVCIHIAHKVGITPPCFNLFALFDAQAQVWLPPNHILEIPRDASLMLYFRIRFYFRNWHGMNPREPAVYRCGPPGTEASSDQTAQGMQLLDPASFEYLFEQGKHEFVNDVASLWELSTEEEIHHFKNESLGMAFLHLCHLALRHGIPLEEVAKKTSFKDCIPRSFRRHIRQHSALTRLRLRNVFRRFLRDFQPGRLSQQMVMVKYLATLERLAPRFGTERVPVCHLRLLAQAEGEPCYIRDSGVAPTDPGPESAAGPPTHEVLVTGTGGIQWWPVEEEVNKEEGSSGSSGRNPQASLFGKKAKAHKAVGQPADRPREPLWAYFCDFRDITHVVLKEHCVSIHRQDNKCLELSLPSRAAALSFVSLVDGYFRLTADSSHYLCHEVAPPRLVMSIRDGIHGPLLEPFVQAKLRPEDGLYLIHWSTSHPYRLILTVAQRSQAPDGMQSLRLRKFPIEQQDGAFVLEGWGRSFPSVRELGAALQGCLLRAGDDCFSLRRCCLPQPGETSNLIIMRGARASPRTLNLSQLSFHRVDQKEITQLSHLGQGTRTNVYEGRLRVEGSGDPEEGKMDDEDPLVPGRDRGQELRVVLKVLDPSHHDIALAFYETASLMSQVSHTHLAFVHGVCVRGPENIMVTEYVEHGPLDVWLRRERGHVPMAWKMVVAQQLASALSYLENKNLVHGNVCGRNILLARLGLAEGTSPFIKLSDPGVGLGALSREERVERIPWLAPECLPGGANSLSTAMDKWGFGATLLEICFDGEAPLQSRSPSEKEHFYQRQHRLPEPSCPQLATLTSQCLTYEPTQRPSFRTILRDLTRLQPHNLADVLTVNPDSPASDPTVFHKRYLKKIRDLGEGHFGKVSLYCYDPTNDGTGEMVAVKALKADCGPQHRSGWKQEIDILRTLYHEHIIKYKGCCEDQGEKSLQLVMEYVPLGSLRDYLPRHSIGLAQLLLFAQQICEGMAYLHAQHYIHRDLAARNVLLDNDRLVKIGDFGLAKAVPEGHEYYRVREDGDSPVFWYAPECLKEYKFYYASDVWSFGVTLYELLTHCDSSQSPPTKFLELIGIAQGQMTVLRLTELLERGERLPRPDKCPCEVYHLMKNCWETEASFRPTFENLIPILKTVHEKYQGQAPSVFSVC
Protocol: The inhibitory potency of compounds of the disclosure against the Tyk2 kinase activity on STAT4 was evaluated using an MSD-platform plate-based assay format. NK92 cells natively expressing STAT4 and Tyk2 were serum-starved to reduce background phosphorylation levels, then cells were treated compounds for 1 hr with a 10-point four-fold dilution series starting at 10 μM. Cells were then stimulated with 30 ng/mL IL2 for 15 minutes. Cells were lysed and […] levels were quantitated using an MSD plate-based assay with anti-STAT4 antibodies. The data were normalized and the percent activity versus log concentration of compound were fitted with a 4-parameter logistic model to generate to generate IC50 curves.

T1 sequence (P52333 822-1111 limits assumed): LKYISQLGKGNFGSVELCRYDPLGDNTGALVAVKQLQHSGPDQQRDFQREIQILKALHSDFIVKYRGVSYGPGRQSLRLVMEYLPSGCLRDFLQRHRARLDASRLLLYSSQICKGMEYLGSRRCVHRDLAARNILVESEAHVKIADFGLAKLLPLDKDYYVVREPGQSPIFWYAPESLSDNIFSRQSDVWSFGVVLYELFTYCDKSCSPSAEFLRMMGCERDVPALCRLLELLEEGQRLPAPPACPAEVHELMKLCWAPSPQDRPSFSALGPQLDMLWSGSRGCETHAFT

| Compound | pIC50 ([1]; JH1 kinase domain, ADP-Glo) | pIC50 ([2]; JH1 kinase domain, ADP-Glo) | pIC50 ([3]; JH1 kinase domain, ADP-Glo) | pIC50 [4] | pIC50 ([5]; JH1 kinase domain, ADP-Glo) | pIC50 [6] | pIC50 [7] | pIC50 ([1]; JAK3 JH1, ADP-Glo) | pIC50 ([2]; JAK1 JH1, ADP-Glo) | pIC50 ([3]; TYK2 JH1, ADP-Glo) | pIC50 ([5]; JAK2 JH1, ADP-Glo) |
| --- | --- | --- | --- | --- | --- | --- | --- | --- | --- | --- | --- |
| CCOCCn1cc(-c2cc3c(N4C[C@@H](C)[C@@](C#N)(C5CC5)C4=O)ccnn3c2)cn1 [Example 172, (3R,4S)-3-cyclopropyl-1-(6-(1-(2-ethoxyethyl)-1H-pyrazol-4-yl)pyrrolo[1,2-b]pyridazin-4-yl)-4-methyl-2-oxopyrrolidine-3-carbonitrile] | 6.00 to 7.00 | 6.00 to 7.00 | > 8.30 | 5.00 to 5.30 | 6.00 to 7.00 | 5.30 to 6.00 | < 7.00 | – | – | – | – |
| C[C@@H]1CN(c2nc(-c3ccnc(C#N)c3)cn3nccc23)C(=O)[C@]1(C#N)C1CC1 [Example 197, 4-(4-((3R,4S)-3-cyano-3-cyclopropyl-4-methyl-2-oxopyrrolidin-1-yl)pyrazolo[1,5-a]pyrazin-6-yl)picolinonitrile] | > 7.00 | > 7.00 | 7.70 to 8.30 | < 5.00 | 6.00 to 7.00 | 5.30 to 6.00 | < 7.00 | – | – | – | – |
| COc1cncc(-c2cn3nccc3c(N3C[C@@H](C)[C@@](C#N)(C4CC4)C3=O)n2)c1 [Example 244, (3R,4S)-3-cyclopropyl-1-(6-(5-methoxypyridin-3-yl)pyrazolo[1,5-a]pyrazin-4-yl)-4-methyl-2-oxopyrrolidine-3-carbonitrile trifluoroacetate] | – | – | – | < 5.00 | – | 5.00 to 5.30 | < 7.00 | 6.00 to 7.00 | 6.00 to 7.00 | 7.70 to 8.30 | 6.00 to 7.00 |
| C[C@@H]1CN(c2nc(-c3cnn(C45CC(C4)C5)c3)cn3ncc(F)c23)C(=O)[C@]1(C#N)C1CC1 [Example 207, (3R,4S)-1-(6-(1-(bicyclo[1.1.1]pentan-1-yl)-1H-pyrazol-4-yl)-3-fluoropyrazolo[1,5-a]pyrazin-4-yl)-3-cyclopropyl-4-methyl-2-oxopyrrolidine-3-carbonitrile] | > 7.00 | > 7.00 | > 8.30 | 5.30 to 6.00 | 6.00 to 7.00 | 6.00 to 7.00 | 7.00 to 7.30 | – | – | – | – |
| C[C@@H]1CN(c2ccnn3cc(-c4ccc(S(C)(=O)=O)nc4)cc23)C(=O)[C@]1(C#N)C1CC1 [Example 52, (3R,4S)-3-cyclopropyl-4-methyl-1-(6-(6-(methylsulfonyl)pyridin-3-yl)pyrrolo[1,2-b]pyridazin-4-yl)-2-oxopyrrolidine-3-carbonitrile] | 6.00 to 7.00 | 6.00 to 7.00 | 7.70 to 8.30 | < 5.00 | 6.00 to 7.00 | 5.00 to 5.30 | < 7.00 | – | – | – | – |
| C[C@@H]1CN(c2nc(-c3cnn([C@H]4C[C@](C)(C#N)C4)c3)cn3ncc(F)c23)C(=O)[C@]1(C#N)C1CC1 [Example 308, (3R,4S)-1-(6-(1-((1r,3R)-3-cyano-3-methylcyclobutyl)-1H-pyrazol-4-yl)-3-fluoropyrazolo[1,5-a]pyrazin-4-yl)-3-cyclopropyl-4-methyl-2-oxopyrrolidine-3-carbonitrile] | – | – | – | 6.00 to 7.00 | – | 6.00 to 7.00 | 7.00 to 7.30 | > 7.00 | > 7.00 | > 8.30 | > 7.00 |
| C[C@@H]1CN(c2nc(-c3cnn(C4CC5(COC5)C4)c3)cn3ncc(F)c23)C(=O)[C@]1(C#N)C1CC1 [Example 298, (3R,4S)-1-(6-(1-(2-oxaspiro[3.3]heptan-6-yl)-1H-pyrazol-4-yl)-3-fluoropyrazolo[1,5-a]pyrazin-4-yl)-3-cyclopropyl-4-methyl-2-oxopyrrolidine-3-carbonitrile] | – | – | – | 6.00 to 7.00 | – | 6.00 to 7.00 | 7.00 to 7.30 | > 7.00 | > 7.00 | > 8.30 | > 7.00 |
| C[C@@H]1CN(c2ccnn3cc(-c4cn5c(n4)CCC5)cc23)C(=O)[C@]1(C#N)C1CC1 [Example 106, (3R,4S)-3-cyclopropyl-1-(6-(6,7-dihydro-5H-pyrrolo[1,2-a]imidazol-2-yl)pyrrolo[1,2-b]pyridazin-4-yl)-4-methyl-2-oxopyrrolidine-3-carbonitrile trifluoroacetate] | 6.00 to 7.00 | 6.00 to 7.00 | > 8.30 | < 5.00 | 6.00 to 7.00 | < 5.00 | < 7.00 | – | – | – | – |
| Cn1cc(-c2cc3c(N4C[C@@H](C(F)F)[C@@](C#N)(C5CC5)C4=O)ccnn3c2)cn1 (racemic) [Example 153, rac-(3R,4S)-3-cyclopropyl-4-(difluoromethyl)-1-(6-(1-methyl-1H-pyrazol-4-yl)pyrrolo[1,2-b]pyridazin-4-yl)-2-oxopyrrolidine-3-carbonitrile] | 5.30 to 6.00 | 6.00 to 7.00 | 7.30 to 7.70 | < 5.00 | 5.30 to 6.00 | < 5.00 | < 7.00 | – | – | – | – |
| C[C@@H]1CN(c2ccnn3cc(-c4ccc(=O)n(C)c4)cc23)C(=O)[C@]1(C#N)C1CC1 [Example 83, (3R,4S)-3-cyclopropyl-4-methyl-1-(6-(1-methyl-6-oxo-1,6-dihydropyridin-3-yl)pyrrolo[1,2-b]pyridazin-4-yl)-2-oxopyrrolidine-3-carbonitrile] | 6.00 to 7.00 | > 7.00 | > 8.30 | 5.00 to 5.30 | 6.00 to 7.00 | 5.30 to 6.00 | 7.00 to 7.30 | – | – | – | – |
| C[C@@H]1CN(c2ccnn3cc(-c4ccc5cnn(C)c5c4)cc23)C(=O)[C@]1(C#N)C1CC1 [Example 68, (3R,4S)-3-cyclopropyl-4-methyl-1-(6-(1-methyl-1H-indazol-6-yl)pyrrolo[1,2-b]pyridazin-4-yl)-2-oxopyrrolidine-3-carbonitrile] | 6.00 to 7.00 | > 7.00 | 7.70 to 8.30 | 5.00 to 5.30 | 6.00 to 7.00 | 6.00 to 7.00 | 7.00 to 7.30 | – | – | – | – |
| C[C@@H]1CN(c2ccnn3cc(-c4cccc5cncn45)cc23)C(=O)[C@]1(C#N)C1CC1 [Example 128, (3R,4S)-3-cyclopropyl-1-(6-(imidazo[1,5-a]pyridin-5-yl)pyrrolo[1,2-b]pyridazin-4-yl)-4-methyl-2-oxopyrrolidine-3-carbonitrile trifluoroacetate] | 6.00 to 7.00 | 6.00 to 7.00 | 7.70 to 8.30 | < 5.00 | 5.30 to 6.00 | < 5.00 | < 7.00 | – | – | – | – |
| C[C@@H]1CN(c2ccnn3cc(-c4cnn([C@H]5C[C@H](C#N)C5)c4)cc23)C(=O)[C@]1(C#N)C1CC1 [Example 330, (3R,4S)-1-(6-(1-((1r,3R)-3-cyanocyclobutyl)-1H-pyrazol-4-yl)pyrrolo[1,2-b]pyridazin-4-yl)-3-cyclopropyl-4-methyl-2-oxopyrrolidine-3-carbonitrile] | – | – | – | 5.30 to 6.00 | – | 5.30 to 6.00 | 7.30 to 7.70 | > 7.00 | > 7.00 | > 8.30 | > 7.00 |
| C[C@@H]1CN(c2nc(-c3cnc4c(c3)CCN4)cn3nccc23)C(=O)[C@]1(C#N)C1CC1 [Example 215, (3R,4S)-3-cyclopropyl-1-(6-(2,3-dihydro-1H-pyrrolo[2,3-b]pyridin-5-yl)pyrazolo[1,5-a]pyrazin-4-yl)-4-methyl-2-oxopyrrolidine-3-carbonitrile] | > 7.00 | > 7.00 | > 8.30 | 6.00 to 7.00 | > 7.00 | 6.00 to 7.00 | 7.00 to 7.30 | – | – | – | – |
